In general, pKi refers to −log10 of the Ki, conventionally taken in molar units.

pKi: −log10 of the molar value.

For this assay, the target named is T1, full-length ATR (Homo sapiens, UniProt Q13535).
T1 construct: in the presence of 5 nM full-length ATR
T1 sequence (Q13535 whole entry): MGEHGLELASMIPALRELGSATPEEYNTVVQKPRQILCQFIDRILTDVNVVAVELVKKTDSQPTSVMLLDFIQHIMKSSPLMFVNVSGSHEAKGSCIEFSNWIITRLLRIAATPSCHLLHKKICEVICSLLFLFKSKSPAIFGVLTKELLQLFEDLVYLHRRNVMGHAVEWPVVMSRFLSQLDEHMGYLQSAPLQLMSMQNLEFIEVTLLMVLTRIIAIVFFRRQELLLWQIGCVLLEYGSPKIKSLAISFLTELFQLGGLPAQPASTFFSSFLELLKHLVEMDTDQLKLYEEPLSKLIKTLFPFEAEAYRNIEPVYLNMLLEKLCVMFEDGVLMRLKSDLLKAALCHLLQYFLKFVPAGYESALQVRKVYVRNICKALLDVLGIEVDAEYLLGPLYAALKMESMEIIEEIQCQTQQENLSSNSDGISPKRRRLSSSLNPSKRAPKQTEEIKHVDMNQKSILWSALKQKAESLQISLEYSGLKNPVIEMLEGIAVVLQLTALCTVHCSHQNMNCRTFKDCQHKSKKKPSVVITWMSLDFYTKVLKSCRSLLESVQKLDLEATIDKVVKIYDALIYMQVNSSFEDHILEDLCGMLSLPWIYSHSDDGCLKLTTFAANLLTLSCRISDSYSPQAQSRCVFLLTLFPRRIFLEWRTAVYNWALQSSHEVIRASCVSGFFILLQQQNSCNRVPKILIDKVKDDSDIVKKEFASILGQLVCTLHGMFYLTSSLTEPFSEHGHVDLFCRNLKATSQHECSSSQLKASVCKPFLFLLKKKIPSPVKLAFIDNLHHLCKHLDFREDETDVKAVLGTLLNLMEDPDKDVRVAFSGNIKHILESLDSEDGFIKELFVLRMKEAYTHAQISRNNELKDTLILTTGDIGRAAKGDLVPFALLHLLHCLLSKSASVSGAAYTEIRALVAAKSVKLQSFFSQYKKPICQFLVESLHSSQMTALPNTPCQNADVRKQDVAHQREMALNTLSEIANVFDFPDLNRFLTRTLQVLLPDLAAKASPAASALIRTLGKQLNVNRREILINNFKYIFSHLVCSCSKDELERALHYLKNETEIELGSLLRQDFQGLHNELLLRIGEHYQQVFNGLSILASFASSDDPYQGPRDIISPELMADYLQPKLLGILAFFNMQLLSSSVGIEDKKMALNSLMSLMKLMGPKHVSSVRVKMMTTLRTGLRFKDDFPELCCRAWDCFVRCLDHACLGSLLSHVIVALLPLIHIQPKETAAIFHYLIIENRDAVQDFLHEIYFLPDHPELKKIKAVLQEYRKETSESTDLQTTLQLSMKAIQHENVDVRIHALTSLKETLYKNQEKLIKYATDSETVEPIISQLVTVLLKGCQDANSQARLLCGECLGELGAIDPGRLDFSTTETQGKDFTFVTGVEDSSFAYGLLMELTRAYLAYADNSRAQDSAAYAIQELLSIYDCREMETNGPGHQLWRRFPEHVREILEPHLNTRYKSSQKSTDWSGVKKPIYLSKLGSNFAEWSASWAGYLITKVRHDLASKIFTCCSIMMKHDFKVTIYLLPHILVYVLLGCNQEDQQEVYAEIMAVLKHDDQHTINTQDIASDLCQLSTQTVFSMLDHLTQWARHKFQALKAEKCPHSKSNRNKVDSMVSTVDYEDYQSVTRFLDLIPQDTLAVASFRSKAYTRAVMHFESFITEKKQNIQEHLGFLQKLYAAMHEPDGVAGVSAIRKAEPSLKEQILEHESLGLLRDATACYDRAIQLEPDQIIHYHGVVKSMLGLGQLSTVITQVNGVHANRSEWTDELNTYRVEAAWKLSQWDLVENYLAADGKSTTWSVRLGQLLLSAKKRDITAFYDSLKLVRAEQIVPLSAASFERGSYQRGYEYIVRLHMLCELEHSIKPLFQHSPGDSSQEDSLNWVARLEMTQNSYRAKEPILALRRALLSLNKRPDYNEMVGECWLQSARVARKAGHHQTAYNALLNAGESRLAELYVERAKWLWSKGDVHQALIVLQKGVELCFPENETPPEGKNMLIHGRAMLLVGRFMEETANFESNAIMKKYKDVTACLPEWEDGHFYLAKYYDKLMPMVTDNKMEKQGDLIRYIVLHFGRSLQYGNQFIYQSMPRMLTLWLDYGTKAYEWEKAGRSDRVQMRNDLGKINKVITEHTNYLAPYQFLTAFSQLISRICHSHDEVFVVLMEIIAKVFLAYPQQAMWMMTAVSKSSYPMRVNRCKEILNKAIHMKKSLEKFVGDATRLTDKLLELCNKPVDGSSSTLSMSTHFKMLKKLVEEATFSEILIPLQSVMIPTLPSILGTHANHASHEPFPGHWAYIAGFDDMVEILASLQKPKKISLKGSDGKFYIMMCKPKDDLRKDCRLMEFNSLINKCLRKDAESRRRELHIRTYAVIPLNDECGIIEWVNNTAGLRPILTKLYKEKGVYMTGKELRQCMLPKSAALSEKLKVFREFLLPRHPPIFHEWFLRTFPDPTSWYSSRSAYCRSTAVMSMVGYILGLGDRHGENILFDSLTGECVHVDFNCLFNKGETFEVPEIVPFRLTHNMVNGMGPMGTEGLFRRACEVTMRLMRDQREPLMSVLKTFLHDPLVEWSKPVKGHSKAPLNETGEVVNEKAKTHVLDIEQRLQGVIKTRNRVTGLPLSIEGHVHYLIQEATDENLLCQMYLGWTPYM
Put plainly: ATR Inhibition Assay (radioactive-phosphate incorporation). Format: biochemical. The settings on record: Ki(app); 5 nM full-length ATR, 10 μM ATP, 800 μM target peptide, 25° C. As to the method:
Test compounds were screened for their ability to inhibit ATR kinase using a radioactive-phosphate incorporation assay. Assays were carried out in a mixture of 50 mM
Tris/HCl (pH 7.5), 10 mM MgCl2 and 1 mM DTT. Final substrate concentrations were 10 μM [γ-33P]ATP (3 mCi 33 P ATP/mmol ATP, Perkin Elmer) and 800 μM target peptide ([…]). Assays were carried out at 25° C. in the presence of 5 nM full-length ATR. An assay stock buffer solution was prepared containing all of the reagents listed above, with the exception of ATP and the test compound of interest. […] The plate was pre-incubated for 10 minutes at 25° C. and the reaction initiated by addition of 15 μL [γ-33P]ATP (final concentration 10 μM).
The reaction was stopped after […] by the addition of 30 μL 0.1M phosphoric acid containing 2 mM ATP. A multiscreen phosphocellulose filter 96-well plate (Millipore, Cat no. MAPHN0B50) was pretreated with 100 μL 0.2M phosphoric acid prior to the addition of 45 μL of the stopped assay mixture. The plate was washed with 5×200 μL 0.2M phosphoric acid.
After removing mean background values for all of the data points, Ki(app) data were calculated from non-linear regression analysis of the initial rate data using the Prism software package (GraphPad Prism version 3.0cx for Macintosh, GraphPad Software, San Diego Calif., USA).
As to `Cc1cccc(C)c1C(=O)N1CCN(c2cnc(N)c(C(=O)Nc3ccccn3)n2)CC1` [Compound I-262, 3-amino-6-(4-(2,6-dimethylphenylcarbonyl)piperazin-1-yl)-N-(pyridin-2-yl)pyrazine-2-carboxamide], the negative logarithm of the Ki (pKi) was 6.00 to 7.00. On to `N#CCCN1CCN(c2cnc(N)c(-c3nnc(-c4ccccc4)o3)n2)CC1` [Compound I-298, 3-[4-[5-amino-6-(5-phenyl-1,3,4-oxadiazol-2-yl)pyrazin-2-yl]piperazin-1-yl]propanenitrile], for which the pKi is 5.00 to 6.00. As for `Nc1ncc(N2CCN(c3nccs3)CC2)nc1-c1nc2ccccc2[nH]1` [Compound I-277], the negative logarithm of the Ki (pKi) was 6.00 to 7.00.

As for `Nc1ncc(N2CCN(C(=O)c3ccccn3)CC2)nc1-c1nc2ccccc2[nH]1` [Compound I-176, (4-(5-amino-6-(1H-benzo[d]imidazol-2-yl)pyrazin-2-yl)piperazin-1-yl)(pyridin-2-yl)methanone], the pKi was 6.00 to 7.00. In the case of `CN(C)S(=O)(=O)N1CCN(c2cnc(N)c(C(=O)Nc3ccccn3)n2)CC1` [Compound I-81, 3-amino-6-(4-(N,N-dimethylsulfamoyl)piperazin-1-yl)-N-(pyridin-2-yl)pyrazine-2-carboxamide] it was 5.00 to 6.00.

`Nc1ncc(C2=CCN(C(=O)c3ccccc3)CC2)nc1-c1nnc(-c2ccccc2)o1` [Compound I-103, (4-(5-amino-6-(5-phenyl-1,3,4-oxadiazol-2-yl)pyrazin-2-yl)-5,6-dihydropyridin-1(2H)-yl)(phenyl)methanone]: the pKi was more than 7.00. Regarding `Cc1ccc2nc(-c3nc(N4CCSCC4)cnc3N)[nH]c2c1` [Compound I-8, 3-(6-methyl-1H-benzo[d]imidazol-2-yl)-5-thiomorpholinopyrazin-2-amine], the pKi is 6.00 to 7.00. As to `Nc1ncc(N2CCN(C(=O)COc3ccccc3)CC2)nc1C(=O)Nc1ccccn1` [Compound I-143, 3-amino-6-(4-(2-phenoxyethanoyl)piperazin-1-yl)-N-(pyridin-2-yl)pyrazine-2-carboxamide], the pKi was 5.00 to 6.00. As to `CCNC1CC=C(c2cnc(N)c(-c3nnc(-c4ccccc4)o3)n2)CC1` (stereo not drawn) [Compound I-314, 5-(4-(Ethylamino)cyclohex-1-enyl)-3-(5-phenyl-1,3,4-oxadiazol-2-yl)pyrazin-2-amine], the pKi was 6.00 to 7.00. Next, `Cc1ccc2nc(-c3nc(N4CCC(C(=O)c5ccccc5)CC4)cnc3N)[nH]c2c1` [Compound I-63, (1-(5-amino-6-(6-methyl-1H-benzo[d]imidazol-2-yl)pyrazin-2-yl)piperidin-4-yl)(phenyl)methanone]: 6.00 to 7.00; `Nc1ncc(C2=CCNCC2)nc1-c1nc2ccccc2[nH]1` [Compound I-66, 3-(1H-benzo[d]imidazol-2-yl)-5-(1,2,3,6-tetrahydropyridin-4-yl)pyrazin-2-amine]: 6.00 to 7.00; `Nc1ncc(N2CCN(S(=O)(=O)Cc3ccccc3)CC2)nc1C(=O)Nc1ccccn1` [Compound I-253, 3-amino-6-(4-(benzylsulfonyl)piperazin-1-yl)-N-(pyridin-2-yl)pyrazine-2-carboxamide]: 6.00 to 7.00. In the case of `COCCOCC(=O)N1CC=C(c2cnc(N)c(-c3nc4ccccc4[nH]3)n2)CC1` [Compound I-140, 1-(4-(5-amino-6-(1H-benzo[d]imidazol-2-yl)pyrazin-2-yl)-5,6-dihydropyridin-1(2H)-yl)-2-(2-methoxyethoxy)ethanone], the negative logarithm of the Ki (pKi) was 6.00 to 7.00. In the case of `Nc1ncc(C2=CCN(C(=O)C3CCOCC3)CC2)nc1-c1nc2ccccc2[nH]1` [Compound I-235, (4-(5-amino-6-(1H-benzo[d]imidazol-2-yl)pyrazin-2-yl)-5,6-dihydropyridin-1(2H)-yl)(tetrahydro-2H-pyran-4-yl)methanone] it was 6.00 to 7.00; in that of `Nc1ncc(C2=CCN(S(=O)(=O)c3cccs3)CC2)nc1-c1nnc(-c2ccccc2)o1` [Compound I-245, 3-(5-phenyl-1,3,4-oxadiazol-2-yl)-5-(1-(thiophen-2-ylsulfonyl)-1,2,3,6-tetrahydropyridin-4-yl)pyrazin-2-amine], more than 7.00. On to `N#CCN1CC=C(c2cnc(N)c(-c3nc4ccccc4[nH]3)n2)CC1` [Compound I-76, 2-(4-(5-amino-6-(1H-benzo[d]imidazol-2-yl)pyrazin-2-yl)-5,6-dihydropyridin-1(2H)-yl)ethanenitrile], for which the negative-log Ki (pKi) was 6.00 to 7.00.

Regarding `CCS(=O)(=O)N1CC=C(c2cnc(N)c(-c3nc4c(F)cccc4[nH]3)n2)CC1` [Compound I-155, 5-(1-(ethylsulfonyl)-1,2,3,6-tetrahydropyridin-4-yl)-3-(4-fluoro-1H-benzo[d]imidazol-2-yl)pyrazin-2-amine], the negative-log Ki (pKi) is more than 7.00. `CCS(=O)(=O)N1CCN(c2cnc(N)c(-c3ncc(-c4ccccc4)o3)n2)CC1` [Compound I-36, 5-(4-(ethylsulfonyl)piperazin-1-yl)-3-(5-phenyloxazol-2-yl)pyrazin-2-amine]: the pKi was 6.00 to 7.00.

`CC(=O)N1CCN(c2cnc(N)c(-c3nc4ccc(C)cc4[nH]3)n2)CC1` [Compound I-10, 1-(4-(5-amino-6-(6-methyl-1H-benzo[d]imidazol-2-yl)pyrazin-2-yl)piperazin-1-yl)ethanone]: the pKi was 6.00 to 7.00. As for `Nc1ncc(C2=CCN(C(=O)COc3ccccc3)CC2)nc1-c1nnc(-c2ccccc2)o1` [Compound I-126, 1-(4-(5-amino-6-(5-phenyl-1,3,4-oxadiazol-2-yl)pyrazin-2-yl)-5,6-dihydropyridin-1(2H)-yl)-2-phenoxyethanone], the pKi was more than 7.00.

With `CCS(=O)(=O)N1CCN(c2cnc(N)c(-c3nc4cccnc4[nH]3)n2)CC1` [Compound I-56, 5-(4-(ethylsulfonyl)piperazin-1-yl)-3-(3H-imidazo[4,5-b]pyridin-2-yl)pyrazin-2-amine], the pKi is 6.00 to 7.00. Regarding `Nc1ncc(C2=CCN(C(=O)C3CCC3)CC2)nc1-c1nc2ccccc2[nH]1` [Compound I-200, (4-(5-amino-6-(1H-benzo[d]imidazol-2-yl)pyrazin-2-yl)-5,6-dihydropyridin-1(2H)-yl)(cyclobutyl)methanone], the negative logarithm of the Ki (pKi) is more than 7.00. In the case of `Nc1ncc(N2CCN(S(=O)(=O)c3ccsc3)CC2)nc1-c1nc2ccccc2[nH]1` [Compound I-80, 3-(1H-benzo[d]imidazol-2-yl)-5-(4-(thiophen-3-ylsulfonyl)piperazin-1-yl)pyrazin-2-amine], the pKi is 6.00 to 7.00.

For `CCS(=O)(=O)N1CC=C(c2cnc(N)c(C(=O)Nc3cnccn3)n2)CC1` [Compound I-170, 3-amino-6-(1-(ethylsulfonyl)-1,2,3,6-tetrahydropyridin-4-yl)-N-(pyrazin-2-yl)pyrazine-2-carboxamide], the pKi is 6.00 to 7.00. Regarding `CCOC(=O)C1CC1c1cnc(N)c(-c2nnc(-c3ccccc3)o2)n1` (stereo not drawn) [Compound I-337, Ethyl 2-(5-amino-6-(5-phenyl-1,3,4-oxadiazol-2-yl)pyrazin-2-yl)cyclopropanecarboxylate], the pKi is 6.00 to 7.00. Take `CCS(=O)(=O)N1CCN(c2cnc(N)c(C(=O)Nc3ccccc3)n2)CC1` [Compound I-20, 3-amino-6-(4-(ethylsulfonyl)piperazin-1-yl)-N-phenylpyrazine-2-carboxamide]: the pKi is 6.00 to 7.00. In the case of `CCC(=O)N1CCN(c2cnc(N)c(-c3nnc(-c4ccc(CNC)cc4)o3)n2)C[C@@H]1C(C)C` [Compound I-326, 1-[(2S)-4-[5-Amino-6-[5-[4-(methylaminomethyl)phenyl]-1,3,4-oxadiazol-2-yl]pyrazin-2-yl]-2-isopropyl-piperazin-1-yl]propan-1-one], the negative-log Ki (pKi) is more than 7.00. As for `CCS(=O)(=O)N1CC2CN(c3cnc(N)c(-c4nc5ccc(C)cc5[nH]4)n3)CC2C1` (stereo not drawn) [Compound I-158, 5-(5-(ethylsulfonyl)hexahydropyrrolo[3,4-c]pyrrol-2(1H)-yl)-3-(6-methyl-1H-benzo[d]imidazol-2-yl)pyrazin-2-amine], the pKi was 6.00 to 7.00. In the case of `Nc1ncc(C2=CCN(S(=O)(=O)c3cccnc3)CC2)nc1-c1nc2ccccc2[nH]1` [Compound I-241, 3-(1H-benzo[d]imidazol-2-yl)-5-(1-(pyridin-3-ylsulfonyl)-1,2,3,6-tetrahydropyridin-4-yl)pyrazin-2-amine] it was more than 7.00; in that of `CCS(=O)(=O)N1CC=C(c2cnc(N)c(-c3nc4ccccn4n3)n2)CC1` [Compound I-276, 3-([1,2,4]triazolo[1,5-a]pyridin-2-yl)-5-(1-(ethylsulfonyl)-1,2,3,6-tetrahydropyridin-4-yl)pyrazin-2-amine], 5.00 to 6.00. Next, `Nc1ncc(N2CCN(S(=O)(=O)c3ccccc3)CC2)nc1-c1nnc(-c2ccccc2)o1` [Compound I-196, 3-(5-phenyl-1,3,4-oxadiazol-2-yl)-5-(4-(phenylsulfonyl)piperazin-1-yl)pyrazin-2-amine]: 6.00 to 7.00; `CN(C)S(=O)(=O)N[C@H]1CCN(c2cnc(N)c(-c3nc4ccccc4[nH]3)n2)C1` [Compound I-85, (S)-N-(1-(5-amino-6-(1H-benzo[d]imidazol-2-yl)pyrazin-2-yl)pyrrolidin-3-yl)propane-2-N,N-dimethylsulfamide]: 5.00 to 6.00; `Cc1ccc2nc(-c3nc(N4CCC5(CC4)OCCO5)cnc3N)[nH]c2c1` [Compound I-33, 3-(6-methyl-1H-benzo[d]imidazol-2-yl)-5-(1,4-dioxa-8-azaspiro[4.5]decan-8-yl)pyrazin-2-amine]: 5.00 to 6.00.

Source of the values: patent US8410112B2, “Compounds useful as inhibitors of ATR kinase” (Vertex Pharmaceuticals Incorporated, priority 2008, dated 2013).
